What was measured:
[1] = Pharmacokinetic test in mice after gavage administration; format: in vivo; conditions: ICR mice, male, Oral (10 mg/mL), plasma
Protocol: Control Compound AMG650, Compound 9;
ICR mice, male, 27.3-30.3 g, purchased from Charles River Experimental Animal Technology Co., Ltd.
A proper amount of pharmaceutical compound was weighed, a proper amount of DMA, CrEL and 5% GS were added in turn, then the system was mixed evenly by ultrasonic vortex to prepare a 1 mg/mL drug administration preparation, wherein DMA, CrEL and 5% GS=10:10:80 (v:v:v).
ICR mice, each compound injection group (9 mice in each group) to be determined, were fasted overnight, fed was given 4 hours after gavage administration (PO, the dosage of the compound was 10 mg/kg, the dosage volume was 10 mL/kg).
About 0.1 mL blood was collected from orbits 0.25 hours, 0.5 hours, 1 hour, 2 hours, 4 hours, 8 hours, 10 hours and 24 hours […] after drug administration, and a whole blood sample was placed in an anticoagulant tube including EDTA-K2. Blood samples were collected and then placed on ice, and plasma was separated by centrifugation (centrifugation condition: 1500 g, 10 minutes). The collected plasma was stored at −40° C. to −20° C. before analysis.
LC-MS/MS was used to determine the content of compounds to be tested in plasma of mice after gavage administration.

[2] = tested on: OVCAR-3 cells; test: Inhibition of proliferation of OVCAR-3 cells (CellTiter-Glo); format: cell-based; conditions: Homo sapiens, OVCAR-3 cells (TP53 R248Q mutation), 72 hours, read-out: IC50 inhibiting the proliferation of OVCAR-3 cells
Protocol: (§1) The following method was used to determine the effect of the compound of the present invention on the proliferation of OVCAR-3 cells. OVCAR-3 cells (comprising TP53 R248Q mutation) were purchased from the Cell Resource Center of Shanghai Institute of Life Sciences, Chinese Academy of Sciences, and cultured in a RPMI 1640 medium comprising10% fetal bovine serum, 100 U penicillin and 100 μg/mL streptomycin. Cell viability was determined by Cell Titer-Glo® Luminescent Cell Viability Assay Kit (Promega, article No. G7573).
(§2) An experimental method was carried out according to steps provided in the kit manual, with details as follows: firstly, a test compound was dissolved in DMSO to prepare a 10 mM storage solution, and then diluted with a culture medium to prepare a test sample. A final concentration of the compound ranged from 1000 nM to 0.015 nM. Cells in a logarithmic growth phase were inoculated into a 96-mesh cell culture plate at a density of 1000 cells per mesh, cultured overnight in a 5% CO2 incubator at 37° C., and then cultured for 72 hours after adding the test compound. After completion of cultivation, 50 uL CellTiter-Glo detection solution was added into each mesh, shook for 5 minutes, and stood for 10 minutes, and then a luminous value of each mesh of the sample was read by a microplate reader using Luminescence mode. Compared with the numerical value of a control group (0.3% DMSO), a percentage inhibition rate of the compound at each concentration point was calculated, and then an IC50 value of the compound inhibiting cell proliferation was obtained by a nonlinear regression analysis with a logarithmic-inhibition rate of the compound concentration in a GraphPad Prism 5 software, as shown in Table 1.

[3] = tested on: HT-29 cells; test: Inhibition of proliferation of HT-29 cells (CellTiter-Glo); format: cell-based; conditions: Homo sapiens, HT-29 cells (TP53 R273H mutation), 120 hours, read-out: IC50 inhibiting the proliferation of HT-29 cells
Protocol: as §1, with “HT-29” for “OVCAR-3”, “R273H” for “R248Q”, “McCOY's 5A” for “RPMI 1640”, “comprising 10%” for “comprising10%”
as §2, with “per mesh, and cultured overnight” for “per mesh, cultured overnight”, “cultured for 120 hours after” for “cultured for 72 hours after”, “Compared with a numerical value” for “Compared with the numerical value”, “in Table 2.” for “in Table 1.”

[4] = target: T1, recombinant human KIF18A enzyme (Homo sapiens, UniProt Q8NI77); test: Inhibition of KIF18A enzyme activity (ADP-Glo); format: biochemical; conditions: recombinant human KIF18A protein 100 nM, ATP 60 uM, read-out: IC50 inhibiting KIF18A enzyme activity
T1 construct: purchased Genscript
T1 sequence (Q8NI77 whole entry): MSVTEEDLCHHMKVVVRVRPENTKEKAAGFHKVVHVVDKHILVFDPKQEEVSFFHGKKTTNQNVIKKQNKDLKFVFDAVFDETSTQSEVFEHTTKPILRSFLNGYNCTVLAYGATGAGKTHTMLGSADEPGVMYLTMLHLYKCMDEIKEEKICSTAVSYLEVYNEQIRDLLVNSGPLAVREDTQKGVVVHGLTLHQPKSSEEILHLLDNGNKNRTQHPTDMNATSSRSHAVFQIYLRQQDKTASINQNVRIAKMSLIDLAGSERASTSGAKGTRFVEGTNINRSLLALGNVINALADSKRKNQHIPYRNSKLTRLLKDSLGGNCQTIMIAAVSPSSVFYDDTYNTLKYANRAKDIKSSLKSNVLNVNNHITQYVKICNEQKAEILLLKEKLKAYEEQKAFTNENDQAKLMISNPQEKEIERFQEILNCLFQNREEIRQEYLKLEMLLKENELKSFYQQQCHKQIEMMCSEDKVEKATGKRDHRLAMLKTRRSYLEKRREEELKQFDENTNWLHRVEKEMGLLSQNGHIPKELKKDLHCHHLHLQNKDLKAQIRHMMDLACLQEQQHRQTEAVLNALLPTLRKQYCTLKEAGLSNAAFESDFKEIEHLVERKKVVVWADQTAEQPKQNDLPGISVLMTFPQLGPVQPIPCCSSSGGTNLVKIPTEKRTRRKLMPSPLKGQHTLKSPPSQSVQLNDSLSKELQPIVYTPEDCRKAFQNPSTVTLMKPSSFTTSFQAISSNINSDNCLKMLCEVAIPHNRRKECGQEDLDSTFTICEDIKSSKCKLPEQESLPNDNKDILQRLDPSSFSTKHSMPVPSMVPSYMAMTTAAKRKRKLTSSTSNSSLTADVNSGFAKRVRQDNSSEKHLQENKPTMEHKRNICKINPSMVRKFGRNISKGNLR
T1 sequence (P68363 whole entry partner): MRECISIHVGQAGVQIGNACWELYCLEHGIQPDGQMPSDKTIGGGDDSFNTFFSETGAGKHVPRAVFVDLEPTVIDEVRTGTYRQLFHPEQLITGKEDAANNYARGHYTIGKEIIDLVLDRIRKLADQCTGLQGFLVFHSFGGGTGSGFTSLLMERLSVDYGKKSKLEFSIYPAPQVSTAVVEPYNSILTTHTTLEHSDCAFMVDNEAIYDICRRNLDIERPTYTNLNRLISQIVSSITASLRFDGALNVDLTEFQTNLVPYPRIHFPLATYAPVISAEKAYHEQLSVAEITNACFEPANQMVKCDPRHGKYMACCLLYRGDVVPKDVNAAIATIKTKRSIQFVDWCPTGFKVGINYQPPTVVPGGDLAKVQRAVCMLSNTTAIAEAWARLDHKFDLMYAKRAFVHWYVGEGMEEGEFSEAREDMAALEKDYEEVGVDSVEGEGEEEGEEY
T1 sequence (P07437 whole entry partner): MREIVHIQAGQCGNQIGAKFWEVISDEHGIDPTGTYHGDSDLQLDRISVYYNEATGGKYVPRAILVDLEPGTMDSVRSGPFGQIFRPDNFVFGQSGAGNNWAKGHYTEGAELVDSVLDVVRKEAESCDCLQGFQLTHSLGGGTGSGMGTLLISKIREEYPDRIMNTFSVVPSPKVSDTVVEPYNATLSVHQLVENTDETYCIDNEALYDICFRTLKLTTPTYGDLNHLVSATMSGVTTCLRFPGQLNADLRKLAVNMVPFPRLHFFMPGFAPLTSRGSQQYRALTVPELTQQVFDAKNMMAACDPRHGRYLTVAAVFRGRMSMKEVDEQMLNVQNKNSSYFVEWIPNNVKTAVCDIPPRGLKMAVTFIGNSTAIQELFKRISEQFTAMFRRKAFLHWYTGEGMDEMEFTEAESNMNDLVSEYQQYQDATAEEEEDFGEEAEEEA
Protocol: The following method was used to determine a degree of inhibition of the compound of the present invention on the activity of recombinant human KIF18A enzyme in vitro. The method used ADP-Glo™ Kinase Assay kit (article No. V9102) of Promega Company. For detailed experimental operation, please refer to the kit instructions.
Firstly, the compound and recombinant human KIF18A protein (final concentration of 100 nM, entrusted to Genscript for expression) were added into the mesh, and incubated at room temperature for 20 minutes. Then, ATP solution (component V915A from ADP-Glo™ Kinase Assay kit, final concentration of 60 uM) was added to the reaction solution, and the mixture was incubated at room temperature for 20 minutes. Subsequently, 5 μL ADP-Glo Reagent was added to the reaction system and the obtained system was incubated at troom temperature for 50 minutes. After that, 10 μL of Kinase Detection Reagent was added to the reaction system and the obtained system was incubated at room temperature for 30 minutes. After the completion of incubation, a chemiluminescence intensity value of each mesh was measured by a microplate reader using Luminescence mode.

Row | IC50 [2] [µM] | IC50 [3] [µM] | IC50 [4] [µM] | SMILES | also measured
1 |  |  |  | Cc1cc(NC(=O)c2ccc(NS(=O)(=O)CCO)cc2N2CCC3(CC2)CC3)nc(N2CCC(F)(F)CC2)n1 [AMG 650, reference compound] | Blood concentration Cmax [1]: 3.05 µg/mL; Curve area AUC0-∞ [1]: 52.5 µg·h/mL; Half-life period T½ [1]: 9.64 h
2 | 0.0015 | 0.0032 |  | COc1ccc(NC(=O)c2ccc(NS(=O)(=O)CCO)cc2N2CCC3(CC2)CC3)cc1N1CCC(F)(F)CC1 [Example 6, N-(3-(4,4-difluoropiperidin-1-yl)-4-methoxyphenyl)-4-((2-hydroxyethyl)sulfonamido)-2-(6-azaspiro[2.5]octan-6-yl)benzamide] | 
3 | 0.0019 | 0.0524 | 0.177 | N#Cc1ccc(NC(=O)c2ccc(NS(=O)(=O)CCO)cc2N2CCC3(CC2)CC3)cc1N1CCC(F)(F)CC1 [Example 7, N-(4-cyano-3-(4,4-difluoropiperidin-1-yl)phenyl)-4-((2-hydroxyethyl)sulfonamido)-2-(6-azaspiro[2.5]octan-6-yl)benzamide] | 
4 | 0.0174 | 0.0145 | 0.0978 | CCS(=O)(=O)Nc1ccc(C(=O)Nc2ccc(C#N)c(N3CCC(F)(F)CC3)c2)c(N2CCC3(CC2)CC3)c1 [Example 8, N-(4-cyano-3-(4,4-difluoropiperidin-1-yl)phenyl)-4-(ethylsulfonamido)-2-(6-azaspiro[2.5]octan-6-yl) benzamide] | 
5 | 0.0075 | 0.0428 |  | CCS(=O)(=O)Nc1ccc(C(=O)Nc2ccc(OC)c(N3CCOCC3)c2)c(N2CCC3(CC2)CC3)c1 [Example 10, 4-(ethylsulfonamido)-N-(4-methoxy-3-morpholinophenyl)-2-(6-azaspiro[2.5]octan-6-yl)benzamide] | 
6 | 0.0147 | 0.0039 | 0.145 | CCS(=O)(=O)Nc1ccc(C(=O)Nc2ccc(OC)c(CN3CC(F)(F)C3)c2)c(N2CCC3(CC2)CC3)c1 [Example 11, N-(3-((3,3-difluoroazetidin-1-yl)methyl)-4-methoxyphenyl)-4-(ethylsulfonamido)-2-(6-azaspiro[2.5]octan-6-yl)benzamide] | 
7 |  |  | 0.137 | CCS(=O)(=O)Nc1ccc(C(=O)Nc2ccc(OC(F)(F)F)c(N3CCC(F)(F)CC3)c2)c(N2CCC3(CC2)CC3)c1 [Example 13, N-(3-(4,4-difluoropiperidin-1-yl)-4-(trifluoromethoxy)phenyl)-4-(ethylsulfonamido)-2-(6-azaspiro[2.5]octan-6-yl)benzamide] | 
8 | 0.0045 | 0.0271 | 0.185 | CCS(=O)(=O)Nc1ccc(C(=O)Nc2ccc(OC)c(-c3ccc(F)cn3)c2)c(N2CCC3(CC2)CC3)c1 [Example 16, 4-(ethylsulfonamido)-N-(3-(5-fluoropyridine-2-yl)-4-methoxyphenyl)-2-(6-azaspiro [2.5]octan-6-yl) benzamide] | 

Row | SMILES | IC50 [2] [µM] | IC50 [3] [µM] | IC50 [4] [µM] | also measured
9 | CCS(=O)(=O)Nc1ccc(C(=O)Nc2ccc(OC)c(N3CCC(F)(F)CC3)c2)c(N2CCC3(CC2)CC3)c1 [Example 9, N-(3-(4,4-difluoropiperidin-1-yl)-4-methoxyphenyl)-4-(ethylsulfonamido)-2-(6-azaspiro[2.5]octan-6-yl) benzamide] | 0.0015 | 0.0033 |  | Cmax ([1]; mouse, 10 mg/kg, read-out: Blood concentration Cmax): 5.27 µg/mL; AUC(0-inf) ([1]; mouse, 10 mg/kg, read-out: Curve area AUC0-∞): 52.2 µg·h/mL; half-life ([1]; mouse, 10 mg/kg, read-out: Half-life period T½ (converted)): 5.9 h

From patent US20260256762A1, “Aromatic Amide Derivative, And Preparation Method Therefor And Medical Use Thereof” (ZHEJIANG HISUN PHARMACEUTICAL CO., LTD., priority 2023, published 2026)
